{"source": "patent US7514406B2", "about": "“Methods for inhibiting deacetylase activity” (Fred Hutchinson Cancer Research Center, priority 2001, dated 2009)", "key": {"[1]": {"test_system": "mutant SIR2 (GAL-SIR2-Y298N or GAL-SIR2-H286Q)", "test": "HDA assay with drug resistant mutant Sir2p", "type": "biochemical, S. cerevisiae", "settings": "in vitro, equivalent amounts of protein", "protocol": "Briefly, histone H4 was chemically acetylated using the HDAC Assay Kit (Upstate Biotechnology). […] For the histone deacetylase assays, 50 μg of yeast whole-cell protein extract was incubated with [^3H] acetylated histone H4-peptide (40,000 cpm) with or without 500 μM NAD^+ in a 100 μl reaction. The buffer contained 150 mM NaCl, 25 mM sodium phosphate pH 7.4 and 1 mM DTT. Reactions were incubated at 30° C. for 16 hours and were stopped by the addition of 25 μl of 1 N HCl and 0.15 N acetic acid. Released [^3H] acetate was extracted with 400 μl of ethyl acetate.\nTo obtain further insight into the molecular mechanism by which S I inhibited deacetylase activity of Sir2p, mutant forms of Sir2p were generated that were resistant to the compound. […] Plasmid DNA was recovered from the individual colonies and was retransformed into the test strain to assure that drug resistance was conferred by SIR2-containing plasmid."}, "[2]": {"test_system": "TRP1 gene integrated at the silent HMR locus", "test": "TRP1 reporter at silent HMR locus growth assay", "type": "cell-based, S. cerevisiae", "settings": "tryptophan-deficient media, 36-48 h", "method": "A secondary screening of the eleven identified compounds was carried out using a TRP1 gene which utilized a yeast strain with a TRP1 gene integrated at the silent HMR locus cannot grow in media lacking tryptophan (Buck, S. W. & Shore, D. (1995) Genes Dev. 9, 370-84). Using the method essentially described above, wells in a 96-well plate were inoculated with 150 μL of yeast culture (a yeast strain with a TRP1 gene integrated at the silent HMR locus), containing 1×10^5 cell/ml in tryptophan-deficient media. The eleven compounds dissolved in DMSO were added to the cells and the cultures are incubated for 36-48 h and growth in individual wells is tested by optical density (OD660) measurements and visual inspection."}, "[3]": {"test_system": "silenced telomeric URA3 gene", "test": "URA3 telomeric silencing assay (cell-based screen for Sir2p inhibitors)", "set-up": "species or system S. cerevisiae", "method": "In order to find inhibitors of the deacetylase activity of Sir2p, screening was carried out to identify compounds that perturbed silencing at each of the loci at which Sir2p is known to act in S. cerevisiae: telomeres, HML, HMR, and the rDNA. The cell-based positive selection screen was designed so that inhibition of Sir2p activity permitted normal cell growth in order to avoid identifying cytotoxic compounds. Briefly, a yeast strain containing a marker gene, such as a nutritional marker, in close proximity to a telomeres in S. cerevisiae such that it is repressed by telomeric chromatin, is exposed to a test compound or set of test compounds dissolved in DMSO and cultured under suitable conditions and in media supplemented to permit growth only under conditions in which the marker gene is expressed. After a suitable interval, the optical density of the culture is measured. An increase in optical density corresponds to growth indicating a perturbation of silencing of the marker gene. All strains in this and other examples herein can be grown in synthetic complete media (SC) or selective synthetic drop-out media containing 2% glucose.\nInitial screening for compounds that effect silencing was carried out using a URA3 assay. […] Eleven compounds identified in this primary screen were analyzed further to determine whether silencing at the HML and HMR loci was also affected."}, "Rat1a cells": {"test_system": "Rat1a cells", "test": "Sensitization to etoposide, 3H-thymidine incorporation viability", "type": "cell-based, rat", "settings": "S1 25, 50 and 100 μM with etoposide, 72 hours", "method": "(§1) To test whether S1 could sensitize cells to DNA damage, mammalian cells were exposed to etoposide, a DNA damaging agent, in the presence and absence of S1. […] Viability of cells was assessed with 3H-thymidine incorporation."}, "[4]": {"test_system": "wild type BY4741 cells vs sir2, hst1, hst2, hst3, hst4 deletion mutants", "test": "Whole genome DNA microarray transcriptional profiling", "type": "cell-based, S. cerevisiae", "source_text": "In addition to SIR2, the S. cerevisiae genome encodes four SIR2 homologues: HST1-4 (Homologue of Sir Two) (Brachmann, C. B., et al. (1995) Genes Dev. 9, 2888-902). Hst2p is located in the cytoplasm and is responsible for virtually all the NAD^+-dependent deacetylase activity detected in a cellular lysate (Smith, J. S., et al., (2000) Proc. Natl. Acad. Sci. USA 97, 6658-63). Its relevant biological substrate is unknown. Hst1p is required for transcriptional repression of meiotic genes (Xie, J., et al. (1999) EMBO J. 18, 6448-54), whereas little is known about the cellular function of Hst3p or Hst4p.\nStrains for the DNA array experiments for the whole genome analysis were obtained from Research Genetics (wild type BY4741: MATa his3, leu2, met15, […] or isogenic sir2, hst1, hst2, hst3 and hst4 deletion mutants). Several colonies from fresh cultures were inoculated into synthetic complete medium with 2% glucose, grown overnight at 30° C., diluted to 0.5−1×10^6 cell/ml and grown for an additional 6-9 hours until reaching a density of 0.5−1×10^7 cells/ml. […] Total RNA was extracted using the hot acid phenol method. Microarray construction and hybridization protocols were modified from those described elsewhere (DeRisi, J. L. et al. (1997) Science 278, 680-6). Briefly, yeast microarrays were constructed employing a set of ˜6200 or specific PCR primer pairs (Research Genetics, Huntsville, Ala.), which were used to amplify each open reading frame (orf) of the yeast genome. Individual PCR products were verified as unique via gel electrophoresis and purified using ARRAYIT 96-well PCR purification kits (TeleChem International, Sunnyvale, Calif.). Purified PCR products were mechanically “spotted” in 3×SSC (450 mM sodium chloride and 45 mM sodium citrate, pH 7.0) onto poly-lysine coated microscope slides using an OMNIGRID high-precision robotic gridder (GeneMachines, San Carlo, Calif.). […]"}, "HMLα locus in MATa cells": {"test_system": "HMLα locus in MATa cells", "test": "Pheromone response assay, silencing at the HMLα locus in MATa cells", "type": "cell-based, S. cerevisiae", "source_text": "When haploid MATa cells are exposed to the mating pheromone […], they arrest in G1 phase of the cell cycle. Loss of silencing at the HMLα locus in MATa cells results in expression of a mating type genes (Marsh, L., et al. (1991) Annu. Rev. Cell Biol. 7, 699-728). The coexpression of α and a genes creates a pseudo-diploid state: cells are immune to […] and unable to mate."}, "[5]": {"test_system": "primary human fibroblasts (HFF)", "test": "Sensitization to etoposide, 3H-thymidine incorporation viability", "type": "cell-based", "settings": "S1 25, 50 and 100 μM with etoposide, 72 hours", "method": "as §1"}, "[6]": {"test_system": "silent HML locus in G1-arrested MATa cells", "test": "Maintenance of silent state in G1-arrested MATa cells", "type": "cell-based, S. cerevisiae", "source_text": "This was presumably due to loss of mating competence, a consequence of expression of the α2 gene from the “silent” HML locus. To test this idea more directly, a MATa strain with a single G1 cyclin gene (CLN3), which is under control of a galactose-inducible promoter (Cross, F. R. (1990) Mol. Cell Biol. 10, 6482-90), was arrested in G1 by replacing galactose with glucose in the media."}, "mammalian cells": {"test_system": "mammalian cells", "test": "Toxicity assays using S1 and a variety of DNA damaging agents", "type": "cell-based", "source_text": "(1996) Science 272, 408-11)). In addition to histones, many other proteins are regulated by acetylation, including pRb, E2F and p53 proteins (Chan, H. M., et al. (2001) Nat. Cell Biol. 3,667-74; Martinez-Balbas, M. A., et al. (2000) EMBO J. 19,662-71; and Luo, J., et al. (2000) Nature 408, 377-81). Two recent reports (Vaziri, H., et al. (2001) Cell 107, 149-159 and Luo, J., et al. (2001) Cell 107, 137-148) implicate deacetylation of p53, by Sir2, in down-regulation of transcriptional and proapoptotic activities of p53 in response to DNA damage. […] P. (2001) Oncogene 20, 2988-90 and Tycko, […]. Clin. Invest 105, 245-6)."}, "rDNA locus": {"test_system": "rDNA locus", "test": "Recombination at the rDNA locus (loss of ADE2 integrated into the rDNA array)", "type": "cell-based, S. cerevisiae", "method": "Silencing within the rDNA locus is manifested in two ways. It can weakly repress expression of an inserted reporter gene (Smith, J. S. & Boeke, J. D. (1997) Genes Dev. 11, 241-54), and it reduces recombination between tandem copies of the ribosomal RNA genes (Gottlieb, S. & Esposito, R. E. (1989) Cell 56, 771-6). Recombination was analyzed by measuring the loss rate of an ADE2 gene integrated into the rDNA array essentially as described by Kaeberlein, M., et al. (1999 Genes Dev. 13, 2570-80). […] After six hours, the cultures were plated onto rich medium and the loss of expression of the ADE2 gene was measured and scored by the development of sectored red colonies. […] Treatment with SI increased recombination rate at the rDNA locus seven-fold, which is similar to rates observed in a sir2 mutant (FIG. 1D)."}, "[7]": {"settings": "50 μg/ml cycloheximide 40 minutes prior to S1"}}}
{"smiles": "O=C1CCc2c(ccc3ccccc23)O1", "note": "[S1, 1,2-dihydro-3H-naphtho[2,1-b]pyran-3-one]", "values": [{"measurement": "inhibitory effect on histone deacetylase activity of mutant proteins vs wild type Sir2p", "setting": "[1]", "result": "increased resistance"}, {"measurement": "growth in media lacking tryptophan (loss of silencing at HMR)", "setting": "[2]", "result": "enabled cells to grow in media lacking tryptophan"}, {"measurement": "disruption of silencing in drug resistant SIR2 mutants vs wild type strains", "setting": "[3]; SIR2-H286Q, SIR2-L287Q, SIR2-Y298N", "result": "required higher concentrations"}, {"measurement": "silencing at telomeric loci", "setting": "[3]; URA3 telomeric marker, uracil-deficient media, 0.5, 5 and 50 μM, 36-48 h", "result": "disrupted silencing"}, {"measurement": "sensitization to etoposide", "setting": "Rat1a cells", "result": "dose-dependent sensitization"}, {"measurement": "overlap with HST2, HST3 or HST4 regulated genes", "setting": "[4]", "result": "no overlap"}, {"measurement": "transcriptional down-regulation by S1 in the absence of new protein synthesis", "setting": "[4]; [7]", "result": "virtually all transcriptional down-regulation was abolished"}, {"measurement": "upregulation of genes by S1 with cycloheximide", "setting": "[4]; [7]", "result": "did not affect"}, {"measurement": "silencing at HML", "setting": "HMLα locus in MATa cells", "result": "disrupted silencing at HML"}, {"measurement": "mating of MATa cells", "setting": "HMLα locus in MATa cells; in the presence of S1", "result": "defective for mating"}, {"measurement": "responsiveness of MATa cells to α factor", "setting": "HMLα locus in MATa cells; in the presence of S1", "result": "lost responsiveness to α factor"}, {"measurement": "sensitization to etoposide", "setting": "[5]", "result": "dose-dependent sensitization"}, {"measurement": "α2 mRNA expression from HML in G1-arrested cells", "setting": "[6]; CLN3 galactose-inducible strain arrested by glucose, DMSO control", "result": "detected only in the S1-treated cells"}, {"measurement": "cell cycle progression of α factor G1-arrested MATa cells", "setting": "[6]; untreated cells remained arrested in G1", "result": "progressed through the cell cycle"}, {"measurement": "sensitization to DNA damaging agents", "setting": "mammalian cells", "result": "sensitizes mammalian cells"}, {"measurement": "silencing of a reporter gene within the rDNA locus", "setting": "rDNA locus", "result": "disrupted silencing"}, {"measurement": "increase of recombination rate at the rDNA locus", "setting": "rDNA locus; 15 μM, six hours, similar to rates in a sir2 mutant", "result": "seven-fold"}, {"measurement": "effect on rDNA recombination in sir2 cells", "setting": "rDNA locus; sir2 cells treated with the compound", "result": "no effect"}]}
